Test results from US20240344029A1, “STEM CELL DIFFERENTIATION BY CONTROLLING NUCLEAR CURVATURE” (THE ROYAL INSTITUTION FOR THE ADVANCEMENT OF LEARNING / …, priority 2023, published 2024).

Key:
Type in all cases: cell-based, Murine
MSCs [1] = experiment: Cytochalasin D treatment: endogenous YAP localization and nuclear deformation in MSCs on fibronectin-coated glass coverslips; settings: versus wildtype MSCs
Description: For YAP localization measurements MSCs were imaged in two channels one for iRFP YAP transfected or Alexa 647 conjugated secondary antibody-stained cells (Ex 647 nm laser) and other for Hoechst-stained nuclei (Ex 405 nm laser). The principal metric for YAP quantification was the ratio of fluorescence of iRFP YAP in the nucleus to iRFP YAP in the cytoplasm and is referred to as the YAP Ratio. Image segmentation was performed using a custom MATLAB code, that segments the nucleus from Hoechst and cytoplasm from YAP and measures the ratio of total iRFP YAP fluorescence inside the nucleus to total iRFP YAP fluorescence in the cytoplasm.
(§1) To observe endogenous YAP localization, the MSCs were fixed with 4% paraformaldehyde for 15 min in room temperature and washed 3 times with PBS. The cells were permeabilized with 0.1% Triton X-100 diluted in PBS for 10 minutes. To avoid any nonspecific binding, cells were incubated with 1% bovine serum albumin (BSA) in PBS for 30 minutes at room temperature. To visualize YAP, cells were first incubated with 10 μg/ml Anti-YAP1 mouse monoclonal antibody (ab56701, Abcam™) diluted in 1% BSA in PBS overnight, followed by PBS wash and 1 hour incubation with 10 μg/ml Donkey Anti-Mouse IgG H&L (Alexa Fluor™ 647) secondary antibody (ab150107, Abcam™) diluted in 1% BSA in PBS. For nuclear characterization, nuclei were stained with 10 μg/ml Bisbenzimide Hoechst 33342 trihydrochloride (Sigma™) in PBS for 20 minutes, cells were washed with PBS.
To study the role of nuclear deformation in YAP localization, XYZ stacks of Hoechst-stained nuclei of iRFP YAP transfected MSCs were captured using confocal microscope (Leica TCS SP8, 63× objective) with a closed pinhole 0.5 AU and thin Z step size of 0.3 μm. All the XYZ stacks were analyzed using a custom MATLAB code that measures nuclear volumes, surface area, height, major axis, minor axis, and curvature. In brief, the three-dimensional XYZ stacks were, preprocessed by background subtraction threshold, and binarization. The nuclear volumes, surface area, height, major axis, and minor axis were first measured in pixels using regionprops3™ in MATLAB, which were then converted to microns. Nuclear flatness, Nuclear Eccentricity and Nuclear Aspect Ratio were measured using the following equations: […]
For nuclear curvature analysis, XYZ stacks of Hoechst-stained nuclei were resliced into 2D image sections in XY, XZ and YZ directions. For each resliced 2D nuclear image, curvature was measured across the nuclear boundary, using a curvature function in MATLAB. […] This provided us with distribution of curvature values of the complete nucleus quantified from resliced nuclear images in all three dimensions of XY, XZ and YZ separately (FIGS. 9A-9L). […]

[2] = tested on: MSCs transfected with Nesprin 2G tension sensor; experiment: Nesprin 2G FRET tension sensor, nuclear membrane tension in MSCs; settings: before versus after actin depolymerization
Description: To measure nuclear membrane tension, MSCs were co-transfected Nesprin tension sensor (pcdna nesprin TS, 68127, Addgene) and iRFP-YAP plasmid. Nesprin tension sensors are fluorescent resonance energy transfer-based tension biosensors for nesprin 2G, a structural protein at the LINC complex, which links actin cytoskeleton to the nucleus. For control experiments, MSCs were transfected with Nesprin headless control (pcdna nesprin HL, 68128, Addgene), which lacks the actin-binding domain and is localized on the nuclear membrane. […]
All the image processing and analysis was performed on open-source Image J software. […] Ratio images were calculated by dividing the unmixed venus channel by the unmixed teal channel. For each image, binary masks were manually created in ImageJ to exclude pixels outside of the nuclear membrane as determined by the mVenus channel. […] Local FRET intensity and local curvature were measured using Kappa Curvature Analysis plugin in Image J. In brief, the 2D FRET images were opened in Kappa Curvature Analysis plugin and using a selection tool, points were manually selected across the nuclear membrane and a closed curvature fit was performed. […]

MSCs [3] = experiment: YAP localization in MSCs confined on fibronectin line patterns treated with modulators of nuclear import; settings: for YAP Ratio with increasing Kmax XY: fibronectin line patterns 1.5-8 μm, Pitstop2 30 μM 1 hour; for nuclear YAP on thick (8 μm) and thin (1.5 μm) line patterns: microscopy, FIGS. 15B-15D
Description: Glass coverslips were adhesively micropatterned on 22*22 mm no. 1 with a UV-based patterning system (PRIMO, Alveole Lab, Paris, France). Glass coverslips were incubated with Poly-L-Lysine (PLL, Sigma) solution (5 mg/mL) prepared in 0.1 M HEPES buffer (pH 8.5) for 1 hour at room temperature, followed by rinsing with MiliQ™ water. Positively charged PLL electrostatically adsorbed onto the negatively charged surface of silicone substrates and allowed protein attachment after printing. The coverslips were then incubated with Polyethylene glycol valeric acid (PEG-SVA, Laysan Bio) prepared in 0.1 M HEPES buffer (pH 8.5) for 30 minutes at room temperature, followed by thorough rinsing with phosphate buffer saline (PBS) pH 7. PEG-SVA acts as an antifouling brush layer that repels protein attachment. The coverslips were then covered with the UV sensitive photo-initiator solution of PLPP (Alveole Lab, Paris, France) and placed on the stage of a microscope (Nikon Ti2 Eclipse) equipped with the UV-patterning system.
To generate the patterns, open-source graphics software programs were used, Inkscape and ImageJ, to generate binary 8-bit mask image files that were loaded into PRIMO's control software. The desired pattern was generated by a digital micromirror array in the PRIMO system and projected using a 375 nm UV laser with an intensity of 29 mW/mm^2 via 20×/0.45NA objective. The projected pattern results in localized photodegradation of the antifouling PEG-SVA brush, in the shape of the desired pattern. An exposure dose of 20 seconds was adequate to complete photodegradation of the PEG-SVA brush. Following UV exposure, the coverslips were washed with PBS and incubated them for 1 hr at room temperature with 40 μg/mL fibronectin (Sigma) in PBS to adsorb the protein to the exposed PLL surface. Excess protein was rinsed off with PBS 3 times prior to cell seeding.
as §1
To identify the mechanisms involved in YAP localization via nuclear curvature, MSCs were confined on fibronectin line patterns of decreasing thickness and then exposed to various drugs that manipulate active and passive nuclear import mechanisms. Finally, MSCs were fixed and stained with Anti-YAP1 antibody and Hoechst as explained above. To inhibit active nuclear import, MSCs were treated with 40 μM Importazole (cayman chemicals) for 1 hour, it inhibits importinβ/Ran GTP nuclear import pathway. For inhibiting both active and passive nuclear import, MSCs were treated with 30 μM Pitstop2 (abcam) for 1 hour, it disrupts nuclear pore complex structure and blocks nuclear pores. […]

[4] = 1.5 μM for 2 hours, fibronectin-coated glass coverslips
[5] = Importazole 40 μM 1 hour, trans-1,2-Cyclohexanediol 258 mM 5 mins

| SMILES | YAP Ratio (nuclear to cytoplasmic YAP, endogenous, anti-YAP antibody) (MSCs [1]; [4]) | nuclear volume (MSCs [1]; [4]) | YAP Ratio (nuclear to cytoplasmic YAP, endogenous, anti-YAP antibody) (MSCs [1]; 1.5 μM for 2 hours, fibronectin-coated glass coverslips, listed as Cyto D) | maximum nuclear curvature (Kmax XZ) / nuclear curvature distribution (MSCs [1]; Hoechst-stained nuclei, XYZ stacks, listed as Cyto D) | FRET intensity (increase = decrease in nuclear membrane tension) [2] | YAP Ratio with increasing Kmax XY (MSCs [3]; [5]) | nuclear YAP on thick (8 μm) and thin (1.5 μm) line patterns (MSCs [3]) | YAP Ratio compared with untreated MSCs (MSCs [3]; fibronectin line patterns, Importazole 40 μM 1 hour, trans-1,2-Cyclohexanediol 258 mM 5 mins) |
| --- | --- | --- | --- | --- | --- | --- | --- | --- |
| C=C1[C@@H](C)[C@H]2[C@H](Cc3ccccc3)NC(=O)[C@]23[C@H](OC(C)=O)/C=C/[C@@](C)(O)C(=O)[C@@H](C)C/C=C/[C@H]3[C@@H]1O [Cytochalasin D] | low YAP ratio | high nuclear volumes | lower YAP Ratios | lower maximum curvature in XZ | increase in FRET intensity |  |  |  |
| O=C1NC(=NS(=O)(=O)c2cccc3ccccc23)S/C1=C\c1ccc(Br)cc1 [Pitstop2] |  |  |  |  |  | complete inhibition of curvature influenced YAP Ratio | low nuclear YAP on both thick (8 μm) and thin (1.5 μm) line patterns |  |
| CC(Nc1nc(N2CCCC2)nc2ccccc12)c1ccccc1 (stereo not shown) [importazole, Importazole] |  |  |  |  |  | small increase in YAP ratios with increasing Kmax XY | low nuclear YAP on both thick (8 μm) and thin line patterns (1.5 μm) | substantially less than untreated MSCs |
